A value given as a limit tells only on which side of the number the result lay.

By IC50 is commonly meant the concentration that inhibits the measured activity by half. Read a high IC50 as lower potency. What is called EC50 is the concentration that produces a half-maximal response. Lower therefore signals greater potency.

The target of assay [1] is T1, human β-hexosaminidase [human placenta] (HexA/B).
T1 construct: other: human β-hexosaminidase, human placenta; room temperature, thirty minutes
The assay can be described thus: Determination of IC50 values for inhibition of human β-hexosaminidase. The assay is classed as biochemical. The following applies: human β-hexosaminidase, human placenta; room temperature, thirty minutes. The protocol:
(§1) Inhibitors identified from the screen described in Example 1 were evaluated for IC50 against human β-hexosaminidase [human placenta, Sigma-Aldrich] using a range of inhibitor concentrations from 300 μM to 0.003 μM or 100 μM to 0.001 μM and the following reaction conditions:
(§2) Reactions were carried out at room temperature for thirty minutes and then quenched through the addition of 150 μl 0.5M Na2CO3. Fluorescence readings were taken at excitation wavelength 360 nm and emission wavelength 450 nm. IC50 values were calculated using XLFit 4. The selectivity ratio for inhibition of human O-GlcNAcase over human β-hexosaminidase is defined here as:
(§3) IC50(human β-hexosaminidase)/IC50(Human OGA)

The test system of assay [2] is human β-hexosaminidase [human placenta] (HexA/B). Described as above. The assay is classed as biochemical. The following applies: ratio. The protocol:
as §1, §2, §3

In assay [3] the target is T2, human OGA (Homo sapiens, UniProt O60502).
T2 construct: made in house
T2 sequence (O60502 1-916): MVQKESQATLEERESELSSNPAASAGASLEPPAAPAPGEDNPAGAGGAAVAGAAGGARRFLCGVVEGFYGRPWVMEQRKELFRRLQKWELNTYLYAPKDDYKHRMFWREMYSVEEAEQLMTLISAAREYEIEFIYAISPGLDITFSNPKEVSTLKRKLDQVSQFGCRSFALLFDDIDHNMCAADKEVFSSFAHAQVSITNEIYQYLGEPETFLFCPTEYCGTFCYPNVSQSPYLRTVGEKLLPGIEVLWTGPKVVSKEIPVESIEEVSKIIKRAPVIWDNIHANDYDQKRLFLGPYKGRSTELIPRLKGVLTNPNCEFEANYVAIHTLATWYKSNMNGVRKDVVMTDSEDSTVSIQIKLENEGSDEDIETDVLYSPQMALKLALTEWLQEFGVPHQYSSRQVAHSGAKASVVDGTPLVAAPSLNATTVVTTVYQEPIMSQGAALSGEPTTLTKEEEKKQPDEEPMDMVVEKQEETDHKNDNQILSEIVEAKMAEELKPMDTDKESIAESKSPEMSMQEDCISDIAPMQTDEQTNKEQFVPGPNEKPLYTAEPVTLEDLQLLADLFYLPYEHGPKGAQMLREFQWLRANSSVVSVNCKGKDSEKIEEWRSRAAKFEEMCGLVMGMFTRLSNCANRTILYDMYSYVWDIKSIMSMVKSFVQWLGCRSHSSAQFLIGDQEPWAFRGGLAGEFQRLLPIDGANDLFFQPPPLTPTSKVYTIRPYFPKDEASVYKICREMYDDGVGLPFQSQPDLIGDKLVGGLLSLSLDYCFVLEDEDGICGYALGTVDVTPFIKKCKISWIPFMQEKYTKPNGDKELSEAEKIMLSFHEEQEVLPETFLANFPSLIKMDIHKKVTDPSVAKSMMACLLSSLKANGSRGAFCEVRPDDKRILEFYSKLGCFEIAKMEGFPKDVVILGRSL
Nature of the assay: Determination of IC50 values for inhibition of human OGA. The assay is classed as biochemical. As for the experimental part:
Inhibitors identified from the screen described in Example 1 were evaluated for IC50 using a procedure adapted from Biochem. J. 2009, 420, 221-227. IC50 determination was carried out using a range of inhibitor concentrations from 300 μM to 0.003 μM or 100 μM to 0.001 μM. IC50 values were calculated using XLFit 4.

Assay [4] relates to O-GlcNAc modified proteins in PC-12 cells or SH-SY5Y cells. The assay can be described thus: Western blot analyses of O-GlcNAc modified proteins in cells. The assay is classed as cell-based. Conditions: western blot, cells dosed 4 hours at 37° C.; cell line not given. As for the experimental part: PC-12 cells or SH-SY5Y cells were dosed with the test compound or vehicle control at 37° C. for 4 hours. Once the incubation was completed the media was removed and cells were lysed. Extracted protein was then used for Western blot analysis using standard molecular biology techniques. The resulting membrane was probed with antibodies specific for tau phosphorylation sites (pSer396, pSer422, pThr231, pSer262) or with antibodies specific for O-GlcNAcylation sites (RL-2 or CTD110.6). The primary antibodies were visualised using appropriate secondary conjugated with the fluorophores Alexa 532 or Alexa 488. Actin was visualised using a FITC conjugated primary antibody. Relative quantification was measured in relation to the actin signal using Image lab software (BRL). Marked increases in O-GlcNAcylated proteins within the cells were observed as compared to controls when cells were dosed with test compound.
(In general: Immunoblotting shows a protein as a band on a membrane.)

In the case of `CCCCCCN1[C@H](CO)[C@@H](O)[C@H](O)[C@H]1CC(=O)NCCC` [Compound A055, 2-((2R,3R,4R,5R)-1-hexyl-3,4-dihydroxy-5-(hydroxymethyl)pyrrolidin-2-yl)-N-propylacetamide], the concentration for half-maximal inhibition (IC50) in assay [1] was > 300 µM; in assay [3], 0.119 µM. The “Selectivity: IC50(human β-hexosaminidase)/IC50(Human OGA)” value in assay [2] is given as >2529. This molecule also gave an EC50 in assay [4] of 3.72 µM.

`CNC(=O)C[C@@H]1[C@H](O)[C@H](O)[C@@H](CO)N1CCCCCNS(=O)(=O)c1ccc(C)cc1` [Compound A064, 2-((2R,3S,4R,5R)-3,4-dihydroxy-5-(hydroxymethyl)-1-(5-(4-methylphenylsulfonamido)pentyl)pyrrolidin-2-yl)-N-methylacetamide]: the concentration for half-maximal inhibition (IC50) is 10.1 µM in assay [1] and < 0.003 µM in assay [3]. In addition, the “Selectivity: IC50(human β-hexosaminidase)/IC50(Human OGA)” value in assay [2] was >3366. The midpoint of the response in assay [4], the EC50, lay at 0.127 µM.

On to `CCNC(=O)C[C@H]1N[C@H](CO)[C@@H](O)[C@@H]1O` [Compound A050, 2-((2R,3R,4R,5R)-3,4-dihydroxy-5-(hydroxymethyl)pyrrolidin-2-yl)-N-ethylacetamide], for which the IC50 in assay [1] was > 300 µM; in assay [3], 0.412 µM. Moreover, in assay [2], the “Selectivity: IC50(human β-hexosaminidase)/IC50(Human OGA)” value is reported as >728. For the same molecule, the EC50 in assay [4] came out at 2.72 µM.

On to `CN(C)c1ccc(S(=O)(=O)NCCCCCCN2[C@H](CC(N)=O)[C@H](O)[C@H](O)[C@H]2CO)c2ccccc12` [Compound A015, 2-((2R,3S,4R,5R)-1-(6-(4-(dimethylamino)naphthalene-1-sulfonamido)hexyl)-3,4-dihydroxy-5-(hydroxymethyl)pyrrolidin-2-yl)acetamide], for which the IC50 was 11 µM in assay [1] and < 0.003 µM in assay [3]. Also, the “Selectivity: IC50(human β-hexosaminidase)/IC50(Human OGA)” value in assay [2] was >3666. Also, the midpoint of the response in assay [4], the EC50, lay at 0.08 µM.

Take `CCCNC(=O)C[C@H]1N[C@H](CO)[C@@H](O)[C@@H]1O` [Compound A052, 2-((2R,3R,4R,5R)-3,4-dihydroxy-5-(hydroxymethyl)pyrrolidin-2-yl)-N-propylacetamide]: the IC50 in assay [1] was > 300 µM; in assay [3], 0.113 µM. Moreover, the “Selectivity: IC50(human β-hexosaminidase)/IC50(Human OGA)” value in assay [2] is >2654. This molecule also returned a half-maximal effective concentration (EC50) in assay [4] of 1.07 µM.

As to `CCCCCCN1[C@H](CO)[C@@H](O)[C@H](O)[C@H]1CC(=O)NCC` [Compound A053, N-ethyl-2-((2R,3R,4R,5R)-1-hexyl-3,4-dihydroxy-5-(hydroxymethyl)pyrrolidin-2-yl)acetamide], the values for the concentration for half-maximal inhibition (IC50) in assay [1] and in assay [3] were > 300 µM and 0.0629 µM, respectively. Moreover, the “Selectivity: IC50(human β-hexosaminidase)/IC50(Human OGA)” value in assay [2] was >4769. The EC50 in assay [4] is 1.41 µM.

Take `CNC(=O)C[C@@H]1[C@H](O)[C@H](O)[C@@H](CO)N1CCCC(C)C` [Compound A018, 2-((2R,3S,4R,5R)-3,4-dihydroxy-5-(hydroxymethyl)-1-(4-methylpentyl)pyrrolidin-2-yl)-N-methylacetamide]: the values for the IC50 in assay [1] and in assay [3] were 69 µM and 0.014 µM, respectively. Besides, in assay [2], the “Selectivity: IC50(human β-hexosaminidase)/IC50(Human OGA)” value came out at 5000. In assay [4], this molecule came in with an EC50 of 0.931 µM.

Regarding `CCNC(=O)C[C@@H]1[C@@H](O)[C@H](O)[C@@H](CO)N1CCCc1ccc(Cl)cc1` [Compound A063, 2-((2R,3R,4R,5R)-1-(3-(4-chlorophenyl)propyl)-3,4-dihydroxy-5-(hydroxymethyl)pyrrolidin-2-yl)-N-ethylacetamide], the 50% inhibitory concentration (IC50) in assay [1] is > 300 µM; in assay [3] it was 0.036 µM. For the same molecule, the “Selectivity: IC50(human β-hexosaminidase)/IC50(Human OGA)” value in assay [2] is >8333. Further, the EC50 in assay [4] was 1.01 µM.

Regarding `C=CCNC(=O)C[C@@H]1[C@H](O)[C@H](O)[C@@H](CO)N1CCCCCC` [Compound A039, N-allyl-2-((2R,3S,4R,5R)-1-hexyl-3,4-dihydroxy-5-(hydroxymethyl)pyrrolidin-2-yl)acetamide], the values for the IC50 in assay [1] and in assay [3] were > 300 µM and 1.59 µM, respectively. In addition, the “Selectivity: IC50(human β-hexosaminidase)/IC50(Human OGA)” value in assay [2] was >188.68.

For the molecule `CNC(=O)C[C@H]1[C@@H](O)[C@H](O)[C@H](CO)N1CCCc1ccccc1` [Compound A057, 2-((2S,3R,4R,5S)-3,4-dihydroxy-5-(hydroxymethyl)-1-(3-phenylpropyl)pyrrolidin-2-yl)-N-methylacetamide], the IC50 in assay [1] amounted to 4.26 µM; in assay [3], 39.2 µM. The “Selectivity: IC50(human β-hexosaminidase)/IC50(Human OGA)” value in assay [2] stood at 0.11.

In the case of `CCCCCCN1[C@H](CO)[C@H](O)[C@@H](O)[C@H]1CC(=O)NCCO` [Compound A030, 2-((2R,3S,4S,5R)-1-hexyl-3,4-dihydroxy-5-(hydroxymethyl)pyrrolidin-2-yl)-N-(2-hydroxyethyl)acetamide], the IC50 in assay [1] is > 300 µM; in assay [3], 94.9 µM. Further, the “Selectivity: IC50(human β-hexosaminidase)/IC50(Human OGA)” value in assay [2] is given as >3.16.

As to `CCNC(=O)C[C@@H]1[C@@H](O)[C@H](O)[C@@H](CO)N1CCCc1ccccc1` [Compound A061, 2-((2R,3R,4R,5R)-3,4-dihydroxy-5-(hydroxymethyl)-1-(3-phenylpropyl)pyrrolidin-2-yl)-N-ethylacetamide], the IC50 in assay [1] is > 300 µM; in assay [3] it was 0.0693 µM. Further, in assay [2], the “Selectivity: IC50(human β-hexosaminidase)/IC50(Human OGA)” value is >4329.

Regarding `CNC(=O)C[C@@H]1N[C@H](CO)[C@@H](O)[C@@H]1O` [Compound A045, 2-((2S,3R,4R,5R)-3,4-dihydroxy-5-(hydroxymethyl)pyrrolidin-2-yl)-N-methylacetamide], the values for the IC50 in assay [1] and in assay [3] were 2.76 µM and 0.586 µM, respectively. The “Selectivity: IC50(human β-hexosaminidase)/IC50(Human OGA)” value in assay [2] amounted to 4.71.

As for `CCCCCCCCCN1[C@H](CC(=O)NC)[C@H](O)[C@H](O)[C@H]1CO` [Compound A011, 2-((2R,3S,4R,5R)-3,4-dihydroxy-5-(hydroxymethyl)-1-nonylpyrrolidin-2-yl)-N-methylacetamide], the IC50 is > 300 µM in assay [1] and 0.033 µM in assay [3]. Further, the “Selectivity: IC50(human β-hexosaminidase)/IC50(Human OGA)” value in assay [2] is reported as >9174.

With `CCNC(=O)C[C@@H]1[C@@H](O)[C@H](O)[C@@H](CO)N1CCOc1ccc(Cl)cc1Cl` [Compound A062, 2-((2R,3R,4R,5R)-1-(2-(2,4-dichlorophenoxy)ethyl)-3,4-dihydroxy-5-(hydroxymethyl)pyrrolidin-2-yl)-N-ethylacetamide], the IC50 in assay [1] is > 300 µM; in assay [3] it was 0.512 µM. Further, in assay [2], the “Selectivity: IC50(human β-hexosaminidase)/IC50(Human OGA)” value is >585.

For `O=C(C[C@@H]1[C@H](O)[C@H](O)[C@@H](CO)N1CCCc1ccccc1)NCCO` [Compound A029, 2-((2R,3S,4R,5R)-3,4-dihydroxy-5-(hydroxymethyl)-1-(3-phenylpropyl)pyrrolidin-2-yl)-N-(2-hydroxyethyl)acetamide], the IC50 in assay [1] is > 300 µM; in assay [3], 125 µM. Besides, the “Selectivity: IC50(human β-hexosaminidase)/IC50(Human OGA)” value in assay [2] is recorded as >2.38.

As for `CNC(=O)[C@H]1N[C@@H](CO)[C@@H](O)[C@@H]1O` [Compound A042, (2S,3R,4R,5S)-3,4-dihydroxy-5-(hydroxymethyl)-N-methylpyrrolidine-2-carboxamide], the half-inhibitory concentration (IC50) in assay [1] was determined as 2.5 µM; in assay [3], 2.8 µM. In addition, in assay [2], the “Selectivity: IC50(human β-hexosaminidase)/IC50(Human OGA)” value is 0.89.

The record behind these values is patent US20140073801A1, “PYRROLIDINE DERIVATIVES AS SELECTIVE GLYCOSIDASE INHIBITORS AND USES THEREOF” (Summit Corporation Plc, priority 2011, published 2014).
